Assay results from patent US11655246B2, “Aminothiazole compounds as inhibitors of CTPS1” (STEP PHARMA S.A.S., priority 2017, dated 2023).
Structures can show the parent of a compound that is named as a salt.

These compounds were tested against T1, human CTPS1 (Homo sapiens, UniProt P17812) (assay: Human CTPS1 enzyme inhibition (ADP-Glo Max assay)). Details: Table 17, 25° C., read-out: CTPS1 (Human CTPS1 Enzyme Inhibition data grouped by potency range).
T1 construct: purchased Proteros biostructures GmbH
T1 sequence (P17812 1-591): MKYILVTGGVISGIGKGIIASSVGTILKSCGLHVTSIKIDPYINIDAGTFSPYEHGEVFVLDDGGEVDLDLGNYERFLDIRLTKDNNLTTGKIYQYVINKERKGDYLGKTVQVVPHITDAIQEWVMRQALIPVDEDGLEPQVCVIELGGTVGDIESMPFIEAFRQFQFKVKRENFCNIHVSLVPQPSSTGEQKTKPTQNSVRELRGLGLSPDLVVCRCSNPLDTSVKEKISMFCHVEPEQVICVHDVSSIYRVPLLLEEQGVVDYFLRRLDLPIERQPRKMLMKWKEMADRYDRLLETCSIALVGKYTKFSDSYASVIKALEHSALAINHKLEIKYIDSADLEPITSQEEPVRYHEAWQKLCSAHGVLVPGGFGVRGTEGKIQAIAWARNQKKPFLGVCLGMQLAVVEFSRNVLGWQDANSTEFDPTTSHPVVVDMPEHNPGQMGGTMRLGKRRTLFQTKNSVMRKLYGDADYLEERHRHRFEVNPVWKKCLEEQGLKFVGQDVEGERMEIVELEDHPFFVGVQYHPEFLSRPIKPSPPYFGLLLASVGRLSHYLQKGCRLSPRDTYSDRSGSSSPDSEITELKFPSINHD
Type: biochemical
How it was run: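 ADP-Glo Max luminescence detection of ATP-to-ADP conversion by the enzyme, in 50 mM Tris, 10 mM MgCl2, 0.01% Tween-20, pH 8.0, with 2 mM L-cysteine added fresh. Enzyme preincubated with compound 10 minutes at 25° C. Percentage inhibition calculated per compound concentration.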

| Structure (SMILES) | IC50 |
| --- | --- |
| CC(C)(C(=O)Nc1ccc(-c2cnccn2)cc1F)c1csc(NS(=O)(=O)C2CC2)n1 [T274] | < 100 nM |
| O=C(Nc1ccc(-c2cccnc2)cc1)C1CCc2sc(NS(=O)(=O)C3CC3)nc21 (stereo not drawn) [T213] | 100 to 1000 nM |
| CCC(C(=O)Nc1ccc(-c2cncc(OCC(F)(F)F)n2)cn1)c1csc(NS(=O)(=O)C2CC2)n1 (stereo not drawn) [T182] | < 100 nM |
| CCC(C(=O)Nc1ccc(-c2cncc(OC)n2)cc1F)c1csc(NS(=O)(=O)C2CC2)n1 (stereo not drawn) [T208] | < 100 nM |
| CCC(C(=O)Nc1ccc(-c2cncc(OC(F)F)c2)cc1)c1csc(NS(=O)(=O)C2CC2)n1 (stereo not drawn) [T210] | < 100 nM |
| CCC(C(=O)Nc1ccc(-c2cncc(C(F)(F)F)n2)cc1)c1csc(NS(=O)(=O)C2CC2)n1 (single isomer, unassigned) [T106] | < 100 nM |
| CCC(C(=O)Nc1ccc(-c2cncc(Cl)c2)cc1)c1csc(NS(=O)(=O)C2CC2)n1 (single isomer, unassigned) [T9, N-(4-(5-chloropyridin-3-yl)phenyl)-2-(2-(cyclopropanesulfonamido)thiazol-4-yl)butanamide.HCl] | < 100 nM |
| COCCC(C(=O)Nc1ccc(-c2cncc(Cl)c2)cc1)c1csc(NS(=O)(=O)C2CC2)n1 (stereo not drawn) [T71] | < 100 nM |
| CCC(C(=O)Nc1ccc(-c2cncc(C#N)c2)cn1)c1csc(NS(=O)(=O)C2CC2)n1 (stereo not drawn) [T180] | < 100 nM |
| COC(C(=O)Nc1ccc(-c2cccnc2)cc1)c1csc(NS(=O)(=O)C2CC2)n1 (stereo not drawn) [T219] | < 100 nM |
| CCOc1cncc(-c2ccc(NC(=O)C(CC)c3csc(NS(=O)(=O)C4CC4)n3)cc2)c1 (stereo not drawn) [T96] | < 100 nM |
| CCC(C(=O)Nc1ccc(-c2cncc(OC)n2)cc1)c1csc(NS(=O)(=O)C2CC2)n1 (stereo not drawn) [T33] | < 100 nM |
| COC(C(=O)Nc1ccc(-c2cncc(C(F)(F)F)n2)cn1)c1csc(NS(=O)(=O)C2CC2)n1 (stereo not drawn) [T214] | < 100 nM |
| Cc1sc(NS(=O)(=O)C2CC2)nc1C(C)(C)C(=O)Nc1ccc(-c2cncc(Cl)c2)cc1 [T314] | 100 to 1000 nM |
| CCC(C(=O)Nc1ncc(-c2cncc(C#N)n2)cc1F)c1csc(NS(=O)(=O)C2CC2)n1 (stereo not drawn) [T184] | 1000 to 10000 nM |
| COc1cncc(-c2ccc(NC(=O)C(OC)c3csc(NS(=O)(=O)C4CC4)n3)cc2)n1 (stereo not drawn) [T57] | < 100 nM |
| CCC(CC)(C(=O)Nc1ccc(-c2cnccn2)cn1)c1csc(NS(=O)(=O)C2CC2)n1 [T3, 2-(2-(cyclopropanesulfonamido)thiazol-4-yl)-2-ethyl-N-(5-(pyrazin-2-yl)pyridin-2-yl)butanamide] | 100 to 1000 nM |
| CCC(C(=O)Nc1ccc(-c2cncc(F)c2)cc1)c1csc(NS(=O)(=O)C2CC2)n1 (single isomer, unassigned) [T72] | < 100 nM |
| CCC(C(=O)Nc1ccc(-c2cnccn2)cc1)c1csc(NS(=O)(=O)C2CC2)n1 (stereo not drawn) [T70] | 100 to 1000 nM |
| COC(C(=O)Nc1ccc(-c2cccnc2)cc1F)c1csc(NS(=O)(=O)C2CC2)n1 (stereo not drawn) [T220] | < 100 nM |
| CCC(C(=O)Nc1ccc(-c2ccccc2)cc1)c1csc(NS(=O)(=O)C2CC2)n1 (stereo not drawn) [T85] | 100 to 1000 nM |

Same assay, conditions: Table 18, additional potency data, 25° C., read-out: CTPS1 (Human CTPS1 Enzyme Inhibition data grouped by potency range)

| Structure (SMILES) | IC50 |
| --- | --- |
| COCCC(C(=O)Nc1ccc(-c2cncc(C(F)(F)F)n2)cc1)c1csc(NS(=O)(=O)C2CC2)n1 (stereo not drawn) [T437] | < 100 nM |
| CCc1cc(-c2cncc(C#N)c2)cc(CC)c1NC(=O)C(C)(C)c1csc(NS(=O)(=O)C2CC2)n1 [T349, N-(4-(5-cyanopyridin-3-yl)-2,6-diethylphenyl)-2-(2-(cyclopropanesulfonamido)thiazol-4-yl)-2-methylpropanamide] | 100 to 1000 nM |
| CCOc1cncc(-c2ccc(NC(=O)C(OC)c3csc(NS(=O)(=O)C4CC4)n3)c(OC(F)(F)F)c2)n1 (stereo not drawn) [T454] | < 100 nM |
| CC(C)(C(=O)Nc1ccc(-c2cncc(C(F)(F)F)n2)cc1)c1csc(NS(C)(=O)=O)n1 [T394, 2-methyl-2-(2-(methylsulfonamido)thiazol-4-yl)-N-(4-(6-(trifluoromethyl)pyrazin-2-yl)phenyl)propanamide] | < 100 nM |
| CCOc1cncc(-c2cnc(NC(=O)C(CCOC)c3csc(NS(=O)(=O)C4CC4)n3)c(F)c2)n1 (stereo not drawn) [T435] | < 100 nM |
| COC(C(=O)Nc1ccc(-c2cncc(F)c2)cc1C(F)(F)F)c1csc(NS(=O)(=O)C2CC2)n1 (stereo not drawn) [T447] | < 100 nM |
| COc1cncc(-c2ccc(N3CCC(c4csc(NS(=O)(=O)C5CC5)n4)C3=O)cc2)c1 (stereo not drawn) [T463] | 100 to 1000 nM |
| CCc1cc(-c2cncc(Cl)c2)cc(CC)c1NC(=O)C(C)(C)c1csc(NS(=O)(=O)C2CC2)n1 [T348, N-(4-(5-chloropyridin-3-yl)-2,6-diethylphenyl)-2-(2-(cyclopropanesulfonamido)thiazol-4-yl)-2-methylpropanamide] | 100 to 1000 nM |
| CCS(=O)(=O)Nc1nc(C(C)(C)C(=O)Nc2ccc(-c3cncc(OC(C)C)n3)cc2F)cs1 [T383, 2-(2-(ethylsulfonamido)thiazol-4-yl)-N-(2-fluoro-4-(6-isopropoxypyrazin-2-yl)phenyl)-2-methylpropanamide] | < 100 nM |
| CCOc1cncc(-c2ccc(NC(=O)C(OC)c3csc(NS(=O)(=O)C4CC4)n3)c(F)c2)n1 (stereo not drawn) [T409, 2-(2-(cyclopropanesulfonamido)thiazol-4-yl)-N-(4-(6-ethoxypyrazin-2-yl)-2-fluorophenyl)-2-methoxyacetamide] | < 100 nM |
| CCOc1cc(NC(=O)C(C)(C)c2csc(NS(=O)(=O)C3CC3)n2)ccc1-c1cncc(Cl)c1 [T372, N-(4-(5-chloropyridin-3-yl)-3-ethoxyphenyl)-2-(2-(cyclopropanesulfonamido)thiazol-4-yl)-2-methylpropanamide] | 100 to 1000 nM |
| O=C(Nc1ccc(-c2cncc(C(F)(F)F)n2)cc1)C1(c2csc(NS(=O)(=O)C3CC3)n2)CC1 [T397, 1-(2-(cyclopropanesulfonamido)thiazol-4-yl)-N-(4-(6-(trifluoromethyl)pyrazin-2-yl)phenyl)cyclopropane-1-carboxamide] | 100 to 1000 nM |
| CC(C)(O)c1cncc(-c2ccc(NC(=O)C(C)(C)c3csc(NS(=O)(=O)C4CC4)n3)nc2)n1 [T338, 2-(2-(cyclopropanesulfonamido)thiazol-4-yl)-N-(5-(6-(2-hydroxypropan-2-yl)pyrazin-2-yl)pyridin-2-yl)-2-methylpropanamide] | 1000 to 10000 nM |
| CCS(=O)(=O)Nc1nc(C(C)(C)C(=O)Nc2ccc(-c3cncc(C(F)(F)F)c3)cn2)cs1 [T380, 2-(2-(ethylsulfonamido)thiazol-4-yl)-2-methyl-N-(5′-(trifluoromethyl)-[3,3′-bipyridin]-6-yl)propanamide] | < 100 nM |
| CCOc1cncc(-c2ccc(NC(=O)C(OC)c3csc(NS(=O)(=O)C4CC4)n3)c(C(F)(F)F)c2)n1 (stereo not drawn) [T449] | < 100 nM |
| CC(C)(C(=O)Nc1ccc(-c2cncc(OCC3CCCC3)n2)cc1)c1csc(NS(=O)(=O)C2CC2)n1 [T378, N-(4-(6-(cyclopentylmethoxy)pyrazin-2-yl)phenyl)-2-(2-(cyclopropanesulfonamido)thiazol-4-yl)-2-methylpropanamide] | 1000 to 10000 nM |
| CC(C)Oc1cncc(-c2ccc(NC(=O)C(C)(C)c3csc(NS(=O)(=O)C4CC4)n3)c(F)c2)n1 [T357, 2-(2-(cyclopropanesulfonamido)thiazol-4-yl)-N-(2-fluoro-4-(6-isopropoxypyrazin-2-yl)phenyl)-2-methylpropanamide] | < 100 nM |
| CCOc1cncc(-c2ccc(NC(=O)C(C)(C)c3nc(NS(=O)(=O)C4CC4)sc3Cl)cc2)n1 [T376, 2-(5-chloro-2-(cyclopropanesulfonamido)thiazol-4-yl)-N-(4-(6-ethoxypyrazin-2-yl)phenyl)-2-methylpropanamide] | 100 to 1000 nM |
| CC(C)(C(=O)Nc1ccc(-c2cncc(Cl)c2)cc1C(F)(F)F)c1csc(NS(=O)(=O)C2CC2)n1 [T343, N-(4-(5-chloropyridin-3-yl)-2-(trifluoromethyl)phenyl)-2-(2-(cyclopropanesulfonamido)thiazol-4-yl)-2-methylpropanamide] | < 100 nM |
| Cc1c(NC(=O)C(C)(C)c2csc(NS(=O)(=O)C3CC3)n2)ccc(-c2cncc(C#N)c2)c1F [T367, N-(4-(5-cyanopyridin-3-yl)-3-fluoro-2-methylphenyl)-2-(2-(cyclopropanesulfonamido)thiazol-4-yl)-2-methylpropanamide] | < 100 nM |
| CC(C)(C(=O)Nc1ccc(-c2cncc(C(F)(F)F)c2)cn1)c1csc(NS(C)(=O)=O)n1 [T389, 2-methyl-2-(2-(methylsulfonamido)thiazol-4-yl)-N-(5′-(trifluoromethyl)-[3,3′-bipyridin]-6-yl)propanamide] | 100 to 1000 nM |
| CCOc1cncc(-c2cc(F)c(NC(=O)C(OC)c3csc(NS(=O)(=O)C4CC4)n3)c(F)c2)n1 (stereo not drawn) [T453] | < 100 nM |
| CCOc1cncc(-c2ccc(NC(=O)C(CC)c3csc(NS(=O)(=O)C4CC4)n3)c(Cl)c2)n1 (stereo not drawn) [T439] | < 100 nM |
| CC(C)(C(=O)Nc1ccc(-c2cncc(C#N)n2)cc1F)c1csc(NS(=O)(=O)C2CC2)n1 [T355, N-(4-(6-cyanopyrazin-2-yl)-2-fluorophenyl)-2-(2-(cyclopropanesulfonamido)thiazol-4-yl)-2-methylpropanamide] | 1000 to 10000 nM |
